25 compounds from patent publication US20090227575A1, “7H-PYRROLO[2,3-H]QUINAZOLINE COMPOUNDS, THEIR USE AS mTOR KINASE AND PI3 KINASE INHIBITORS, AND THEIR [sequence]” (Wyeth, priority 2008, published 2009) can be followed below.

What all share (type): biochemical
Experiment [1] deals with Human mTOR (Homo sapiens, UniProt P42345). Briefly: mTOR kinase assay (DELFIA format, purified enzyme). Set-up: FLAG. Particulars: read-out: TOR Kinase IC50.
In experiment [2] the target is PI3K-alpha (Homo sapiens, UniProt P42336). The experiment is described as follows: PI3K-alpha fluorescence polarization assay. The conditions noted are these: read-out: PI3 Kinase α IC50. As for the experimental part:
(§1) The reaction buffer was 20 mM HEPES, pH 7.5, 2 mM MgCl2, 0.05% CHAPS; and 0.01% βME (added fresh). The Stop/Detection Buffer was 100 mM HEPES, pH 7.5, 4 mM EDTA, 0.05% CHAPS; ATP 20 mM in water; PIP2 (diC8, Echelon, Salt Lake City Utah cat #P-4508) 1 mM in water (MW=856.5). The GST-GRP was 1.75 mg/mL or 1.4 mg/mL in 10% glycerol. The Red detector (TAMRA) was 2.5 μM. Nunc 384-well black polypropylene fluorescent plates were used for PI3K assays.
(§2) The assay is run by placing 5 μL of diluted enzyme per well, then 5 μL of diluted compound (or 9.5 μL enzyme then 0.5 μL compound in DMSO) is added and mixed. Then, 10 μL substrate is added to start the reaction. The samples are incubated 30-60 minutes, then the reaction is stopped by adding 20 μL stop/detector mix. PI3K is diluted with reaction buffer (e.g., 5 μL or 7.5 μL PI3K into 620 μL reaction buffer), and 5 μL of diluted enzyme is used per well. A 5 μL portion of reaction buffer or of drug diluted in buffer (e.g., 4 μL/100 so final DMSO is 1% in reaction) is added to each. Pipetting up and down mixes the samples. Alternatively, the enzyme can be diluted to 1215 μL. In this case 9.8 μL is added per well and 0.2 μL compound is added in DMSO.
(§3) To prepare 1 mL of substrate solution, 955 μL reaction buffer, 40 μL PIP2, and 2.5 μL ATP are mixed. 10 μL of substrate is added to each well to start the reaction. […] The stop/detector mix is prepared by mixing 4 μL Red detector and 1.6 μL or 2.0 μL GST-GRP with 1 mL stop buffer, which results in 10 nM probe and 70 nM GST-GRP. 20 μL of the stop/detector mix is added to each well to stop the reaction. The plates are read after 30-90 minutes keeping the red probe solutions dark. For the zero time point, stop/detector mix is added to the enzyme just before adding substrate. For an extra control, stop/detector mix is added to buffer (no enzyme) and substrate or to just buffer (no substrate). […] The recommended reaction has 0.06 μL per 20 μL (0.015 μg/20 μL) or 0.01125 μg/15 μL or 0.75 μg/mL.
(§4) Plates are read on machines with filters for TAMRA. The units are mP with no enzyme controls reading app 190-220 mP units. Fully active enzyme reduces fluorescence polarization down to 70-100 mP after 30 minutes. An active compound raises the mP values halfway to control or to 120-150 mP units.
In general terms: Fluorescence polarisation rises when a labelled molecule tumbles more slowly, as on binding a larger partner.

Experiment [3] concerns the target PI3K-gamma (Homo sapiens, UniProt P48736). The experiment is described as follows: PI3K-gamma fluorescence polarization assay. Particulars: read-out: PI3 Kinase γ IC50. As for the experimental part: as §1, §2, §3, §4

A value given as a limit tells only on which side of the number the result lay.

PI3K-gamma, sequence (P48736 whole entry, species assumed): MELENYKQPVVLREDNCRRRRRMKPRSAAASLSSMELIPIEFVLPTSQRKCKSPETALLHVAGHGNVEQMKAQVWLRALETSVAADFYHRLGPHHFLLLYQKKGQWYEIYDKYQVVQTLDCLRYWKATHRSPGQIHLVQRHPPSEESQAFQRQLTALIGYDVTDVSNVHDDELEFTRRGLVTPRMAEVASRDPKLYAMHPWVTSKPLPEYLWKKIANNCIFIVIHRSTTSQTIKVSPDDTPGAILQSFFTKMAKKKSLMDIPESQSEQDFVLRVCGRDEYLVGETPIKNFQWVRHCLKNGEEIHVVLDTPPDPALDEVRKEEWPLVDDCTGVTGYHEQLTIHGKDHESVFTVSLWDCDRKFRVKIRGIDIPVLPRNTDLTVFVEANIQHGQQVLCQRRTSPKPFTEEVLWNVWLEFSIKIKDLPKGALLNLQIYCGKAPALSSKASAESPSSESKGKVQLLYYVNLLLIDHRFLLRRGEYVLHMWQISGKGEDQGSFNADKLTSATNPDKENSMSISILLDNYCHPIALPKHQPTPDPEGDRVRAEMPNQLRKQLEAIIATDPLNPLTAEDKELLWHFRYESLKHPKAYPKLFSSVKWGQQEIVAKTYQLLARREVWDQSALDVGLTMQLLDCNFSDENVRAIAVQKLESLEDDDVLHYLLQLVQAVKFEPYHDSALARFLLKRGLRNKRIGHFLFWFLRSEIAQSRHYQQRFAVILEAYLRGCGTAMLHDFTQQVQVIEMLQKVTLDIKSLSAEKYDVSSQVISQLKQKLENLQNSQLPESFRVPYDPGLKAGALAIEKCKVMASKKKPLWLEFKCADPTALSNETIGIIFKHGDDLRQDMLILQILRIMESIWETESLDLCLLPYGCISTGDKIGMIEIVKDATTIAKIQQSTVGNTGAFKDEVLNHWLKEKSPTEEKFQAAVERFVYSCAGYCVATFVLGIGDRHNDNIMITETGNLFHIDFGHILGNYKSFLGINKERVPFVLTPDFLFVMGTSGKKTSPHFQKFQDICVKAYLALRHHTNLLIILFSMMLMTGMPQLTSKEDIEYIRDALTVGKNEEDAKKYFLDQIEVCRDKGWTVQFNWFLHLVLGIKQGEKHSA
PI3K-alpha, sequence (P42336 whole entry, species assumed): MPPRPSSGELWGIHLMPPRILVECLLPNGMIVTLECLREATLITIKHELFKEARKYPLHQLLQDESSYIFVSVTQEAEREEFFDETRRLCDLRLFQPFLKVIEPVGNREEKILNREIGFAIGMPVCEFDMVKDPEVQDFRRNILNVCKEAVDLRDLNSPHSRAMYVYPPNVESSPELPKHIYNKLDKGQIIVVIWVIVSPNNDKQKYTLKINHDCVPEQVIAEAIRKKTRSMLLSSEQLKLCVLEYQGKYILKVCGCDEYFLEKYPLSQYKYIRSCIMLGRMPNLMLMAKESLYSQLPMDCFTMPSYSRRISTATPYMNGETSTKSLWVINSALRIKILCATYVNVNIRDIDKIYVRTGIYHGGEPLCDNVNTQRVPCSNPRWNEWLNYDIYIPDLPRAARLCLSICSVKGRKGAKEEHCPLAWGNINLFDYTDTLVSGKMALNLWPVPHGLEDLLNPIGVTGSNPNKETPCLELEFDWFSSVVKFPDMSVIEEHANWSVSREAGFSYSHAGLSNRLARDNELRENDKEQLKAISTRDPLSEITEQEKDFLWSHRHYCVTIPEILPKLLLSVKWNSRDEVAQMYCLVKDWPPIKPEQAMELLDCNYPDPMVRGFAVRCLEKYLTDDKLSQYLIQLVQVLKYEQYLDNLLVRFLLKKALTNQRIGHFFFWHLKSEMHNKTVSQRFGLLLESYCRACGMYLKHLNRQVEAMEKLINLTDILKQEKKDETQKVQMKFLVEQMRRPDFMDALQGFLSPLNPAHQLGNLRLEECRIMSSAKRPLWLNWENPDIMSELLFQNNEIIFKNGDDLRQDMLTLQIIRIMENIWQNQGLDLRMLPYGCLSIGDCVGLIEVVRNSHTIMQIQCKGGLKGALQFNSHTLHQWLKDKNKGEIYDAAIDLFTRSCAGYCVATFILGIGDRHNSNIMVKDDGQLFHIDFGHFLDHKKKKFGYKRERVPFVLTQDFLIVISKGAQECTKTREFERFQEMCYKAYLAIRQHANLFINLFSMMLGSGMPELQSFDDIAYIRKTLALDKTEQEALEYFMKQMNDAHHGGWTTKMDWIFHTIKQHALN
PI3K-alpha, sequence (P27986 whole entry partner, species assumed): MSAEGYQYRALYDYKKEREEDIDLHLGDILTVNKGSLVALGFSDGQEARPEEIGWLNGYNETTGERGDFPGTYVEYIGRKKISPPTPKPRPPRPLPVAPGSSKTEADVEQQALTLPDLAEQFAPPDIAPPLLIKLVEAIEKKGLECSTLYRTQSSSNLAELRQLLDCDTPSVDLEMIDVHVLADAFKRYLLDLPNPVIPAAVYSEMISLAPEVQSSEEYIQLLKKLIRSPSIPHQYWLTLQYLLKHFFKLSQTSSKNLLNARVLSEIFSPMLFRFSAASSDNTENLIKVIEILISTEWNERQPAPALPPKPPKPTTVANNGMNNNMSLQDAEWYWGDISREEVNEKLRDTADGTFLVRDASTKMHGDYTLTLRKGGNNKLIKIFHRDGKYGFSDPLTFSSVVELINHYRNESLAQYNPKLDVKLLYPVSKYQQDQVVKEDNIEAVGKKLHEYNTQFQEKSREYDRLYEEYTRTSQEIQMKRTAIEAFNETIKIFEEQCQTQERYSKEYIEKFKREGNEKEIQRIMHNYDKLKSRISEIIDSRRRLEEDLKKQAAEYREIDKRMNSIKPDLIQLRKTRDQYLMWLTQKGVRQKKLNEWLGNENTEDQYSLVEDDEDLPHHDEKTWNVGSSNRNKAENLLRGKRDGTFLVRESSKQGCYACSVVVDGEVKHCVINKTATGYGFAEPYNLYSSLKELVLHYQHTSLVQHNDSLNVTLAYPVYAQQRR

The term IC50 denotes the concentration that gives 50% inhibition. Take “2-(1H-indol-4-yl)-7-methyl-4-morpholin-5-yl-7H-pyrrolo[2,3-h]quinazoline [Example 49]”: the IC50 in experiment [1] was found to be 340 nM; in experiment [2] it was 6310 nM; in experiment [3], 4660 nM.
Regarding “3-(7-methyl-4-morpholin-4-yl-7H-pyrrolo[2,3-h]quinazolin-2-yl)aniline [Example 41]”, the IC50 is 1450 nM in experiment [1], greater than 10000 nM in experiment [2] and greater than 10000 nM in experiment [3].
Take `Cn1ccc2c3nc(-c4ccc(N)cc4)nc(N4CCOCC4)c3ccc21` [Example 1, 4-(7-methyl-4-morpholin-4-yl-7H-pyrrolo[2,3-h]quinazolin-2-yl)aniline]: the IC50 in experiment [1] was found to be 805 nM; in experiment [2], 6480 nM.
As to `CNC(=O)Nc1ccc(-c2nc(N3CCOCC3)c3ccc4c(ccn4C)c3n2)cc1` [Example 2, 1-methyl-3-[4-(7-methyl-4-morpholin-4-yl-7H-pyrrolo[2,3h]quinazolin-2-yl)phenyl]urea], the half-maximal inhibitory concentration (IC50) was found to be 66 nM in experiment [1], 428 nM in experiment [2] and 5390 nM in experiment [3].
Regarding `CCNC(=O)Nc1ccc(-c2nc(N3CCOCC3)c3ccc4c(ccn4C)c3n2)cc1` [Example 3, 1-ethyl-3-[4-(7-methyl-4-morpholin-4-yl-7H-pyrrolo[2,3-h]quinazolin-2-yl)phenyl]urea], the half-inhibitory concentration (IC50) in experiment [1] was determined as 35 nM; in experiment [2] it was 2110 nM; in experiment [3], 4040 nM.
For the compound `CN(C)CCNC(=O)Nc1ccc(-c2nc(N3CCOCC3)c3ccc4c(ccn4C)c3n2)cc1` [Example 4, 1-[2-(dimethylamino)ethyl]-3-[4-(7-methyl-4-morpholin-4-yl-7H-pyrrolo[2,3-h]quinazolin-2-yl)phenyl]urea], the 50% inhibitory concentration (IC50) came out at 2050 nM in experiment [1], 728 nM in experiment [2] and 2840 nM in experiment [3].
Turning to `CN(C)CCCNC(=O)Nc1ccc(-c2nc(N3CCOCC3)c3ccc4c(ccn4C)c3n2)cc1` [Example 5, 1-[3-(dimethylamino)propyl]-3-[4-(7-methyl-4-morpholin-4-yl-7H-pyrrolo[2,3-h]quinazolin-2-yl)phenyl]urea], the 50% inhibitory concentration (IC50) worked out at 2050 nM in experiment [1] and 2700 nM in experiment [2].
In the same order, the values of `CN1CCN(C(=O)Nc2ccc(-c3nc(N4CCOCC4)c4ccc5c(ccn5C)c4n3)cc2)CC1` [Example 6, 4-methyl-N-[4-(7-methyl-4-morpholin-4-yl-7H-pyrrolo[2,3-h]quinazolin-2-yl)phenyl]piperazine-1-carboxamide] are 2550 nM and 7630 nM.
As for `Cn1ccc2c3nc(-c4ccc(NC(=O)NCc5ccco5)cc4)nc(N4CCOCC4)c3ccc21` [Example 7, 1-(2-furylmethyl)-3-[4-(7-methyl-4-morpholin-4-yl-7H-pyrrolo[2,3-h]quinazolin-2-yl)phenyl]urea], the concentration for half-maximal inhibition (IC50) in experiment [1] was found to be 560 nM; in experiment [2], 1690 nM; in experiment [3], 3500 nM.
In the case of `Cn1ccc2c3nc(-c4ccc(NC(=O)NCCCn5ccnc5)cc4)nc(N4CCOCC4)c3ccc21` [Example 8, 1-[3-(1H-imidazol-1-yl)propyl]-3-[4-(7-methyl-4-morpholin-4-yl-7H-pyrrolo[2,3-h]quinazolin-2-yl)phenyl]urea], the IC50 in experiment [1] turned out to be 190 nM; in experiment [2] it was 431 nM; in experiment [3] it was 3040 nM.
For `Cn1ccc2c3nc(-c4ccc(NC(=O)Nc5ccccn5)cc4)nc(N4CCOCC4)c3ccc21` [Example 9, 1-[4-(7-methyl-4-morpholin-4-yl-7H-pyrrolo[2,3-h]quinazolin-2-yl)phenyl]-3-pyridin-2-ylurea], the half-maximal inhibitory concentration (IC50) in experiment [1] was 75 nM; in experiment [2], 2700 nM; in experiment [3], 5130 nM.
For the compound `Cn1ccc2c3nc(-c4ccc(NC(=O)Nc5ccccc5)cc4)nc(N4CCOCC4)c3ccc21` [Example 10, 1-[4-(7-methyl-4-morpholin-4-yl-7H-pyrrolo[2,3-h]quinazolin-2-yl)phenyl]-3-phenylurea], the results for the IC50 in experiment [1], in experiment [2] and in experiment [3] were 21 nM, 71 nM and 247 nM, respectively.
On to `Cn1ccc2c3nc(-c4ccc(NC(=O)Nc5ccncc5)cc4)nc(N4CCOCC4)c3ccc21` [Example 11, 1-[4-(7-methyl-4-morpholin-4-yl-7H-pyrrolo[2,3-h]quinazolin-2-yl)phenyl]-3-pyridin-4-ylurea], for which the IC50 in experiment [1] was found to be 3.7 nM; in experiment [2] it was 101 nM; in experiment [3], 437 nM.
Consider `CC(C)c1ccc(NC(=O)Nc2ccc(-c3nc(N4CCOCC4)c4ccc5c(ccn5C)c4n3)cc2)cc1` [Example 12, 1-(4-isopropylphenyl)-3-[4-(7-methyl-4-morpholin-4-yl-7H-pyrrolo[2,3-h]quinazolin-2-yl)phenyl]urea], for which the values for the concentration for half-maximal inhibition (IC50) in experiment [1], in experiment [2] and in experiment [3] were 355 nM, 2000 nM and 1330 nM, respectively.
In the case of `Cn1ccc2c3nc(-c4ccc(NC(=O)Nc5cccc(Cl)c5)cc4)nc(N4CCOCC4)c3ccc21` [Example 13, 1-(3-chlorophenyl)-3-[4-(7-methyl-4-morpholin-4-yl-7H-pyrrolo[2,3-h]quinazolin-2-yl)phenyl]urea], the half-inhibitory concentration (IC50) in experiment [1] turned out to be 260 nM; in experiment [2], 62 nM; in experiment [3], 234 nM.
`Cn1ccc2c3nc(-c4ccc(NC(=O)Nc5ccc(C(F)(F)F)cc5)cc4)nc(N4CCOCC4)c3ccc21` [Example 14, 1-[4-(7-methyl-4-morpholin-4-yl-7H-pyrrolo[2,3-h]quinazolin-2-yl)phenyl]-3-[4-(trifluoromethyl)phenyl]urea]: the IC50 is 125 nM in experiment [1], 239 nM in experiment [2] and 634 nM in experiment [3].
For the compound `Cn1ccc2c3nc(-c4ccc(NC(=O)NCc5ccccn5)cc4)nc(N4CCOCC4)c3ccc21` [Example 15, 1-[4-(7-methyl-4-morpholin-4-yl-7H-pyrrolo[2,3-h]quinazolin-2-yl)phenyl]-3-(pyridin-2-ylmethyl)urea], the IC50 is 2150 nM in experiment [1], 2520 nM in experiment [2] and 3310 nM in experiment [3].
On to `CC(=O)Nc1ccc(-c2nc(N3CCOCC3)c3ccc4c(ccn4C)c3n2)cc1` [Example 16, N-[4-(7-methyl-4-morpholin-4-yl-7H-pyrrolo[2,3-h]quinazolin-2-yl)phenyl]acetamide], for which the IC50 is 370 nM in experiment [1], 3080 nM in experiment [2] and greater than 10000 nM in experiment [3].
Consider `Cn1ccc2c3nc(-c4ccc(NS(C)(=O)=O)cc4)nc(N4CCOCC4)c3ccc21` [Example 21, N-[4-(7-methyl-4-morpholin-4-yl-7H-pyrrolo[2,3-h]quinazolin-2-yl)phenyl]methanesulfonamide], for which the values for the IC50 in experiment [2] and in experiment [3] were 7830 nM and greater than 10000 nM, respectively.
As to `Cn1ccc2c3nc(-c4ccc(C(=O)O)cc4)nc(N4CCOCC4)c3ccc21` [Example 38, 4-(7-methyl-4-morpholin-4-yl-7H-pyrrolo[2,3-h]quinazolin-2-yl)benzoic acid], in experiment [1], the IC50 was 4000 nM.
In the case of `Cn1ccc2c3nc(-c4cccc(C(N)=O)c4)nc(N4CCOCC4)c3ccc21` [Example 39, 3-(7-methyl-4-morpholin-4-yl-7H-pyrrolo[2,3-h]quinazolin-2-yl)benzamide], the IC50 in experiment [1] was found to be 1720 nM.
`Cn1ccc2c3nc(-c4cccc(C#N)c4)nc(N4CCOCC4)c3ccc21` [Example 40, 3-(7-methyl-4-morpholin-4-yl-7H-pyrrolo[2,3-h]quinazolin-2-yl)benzonitrile]: the half-inhibitory concentration (IC50) in experiment [1] was 2300 nM.
For the compound `Cn1ccc2c3nc(-c4cnc(O)nc4)nc(N4CCOCC4)c3ccc21` [Example 51, 5-(7-methyl-4-morpholin-4-yl-7H-pyrrolo[2,3-h]quinazolin-2-yl)pyrimidin-2-ol], the half-inhibitory concentration (IC50) in experiment [2] and in experiment [3] was greater than 10000 nM throughout.
Consider `Cn1ccc2c3nc(-c4cccc(F)c4)nc(N4CCOCC4)c3ccc21` [Example 52, 2-(3-fluorophenyl)-7-methyl-4-morpholin-4-yl-7H-pyrrolo[2,3-h]quinazoline], for which the concentration for half-maximal inhibition (IC50) in experiment [2] worked out at 8880 nM; in experiment [3], 3660 nM.
Regarding `CCCNC(=O)Nc1ccc(-c2nc(N3CCOCC3)c3ccc4c(ccn4C)c3n2)cc1` [Example 54, 1-[4-(7-methyl-4-morpholin-4-yl-7H-pyrrolo[2,3-h]quinazolin-2-yl)phenyl]-3-propylurea], the IC50 in experiment [1] was 21 nM.
